Source: patent US11147815B2, “Compositions and methods for treating diseases associated with uncontrolled inflammatory responses” (SF17 THERAPEUTICS, INC., priority 2018, dated 2021)

Assays:
THP-1 cells = experiment: Cell count in the THP-1 screening assay; type: cell-based, human; conditions: 10 µM compound, IFN-γ stimulation, normalized to control
Procedure: (§1) A library of small molecule compounds comprising an E2-RING domain or a RING-RING domain was screen for TRIM8 inhibition in a cell-based assay. 20,000 THP-1 cells (a human myeloid cell line which imitates human monocyte cell inflammatory behavior and responds to IFN-γ stimulation by expressing […] CXCL9, CXCL10 and CXCL11) were incubated with […] of each compound (dissolved in DMSO) for 4 hours, then stimulated with 200 U (units) of human IFN-γ. The effect of the stimulation as measured by changes in accumulation levels of the cytokines CXCL9, CXCL10 and CXCL11 in extracellular fluid was determined by flow cytometer after 12 hours and compared to control (IFN-γ stimulation with no compound).

TRIM8 = target: T1, TRIM8 (Homo sapiens, UniProt Q9BZR9); experiment: Cell-based screen for TRIM8 inhibition: CXCL9, CXCL10 and CXCL11 accumulation in IFN-γ-stimulated THP-1 cells; conditions: for Normalized Average of IP-10/CXCL10 / Normalized Average of MIG/CXCL9 / Normalized Average of I-TAC/CXCL11 / Effect on inflammatory response (CXCL9, CXCL10, CXCL11 after IFN-γ): THP-1 cells; for Normalized Average of IP-10/CXCL10 / Normalized Average of MIG/CXCL9 / Normalized Average of I-TAC/CXCL11: 10 µM compound 4 hours, then 200 U human IFN-γ, 12 hours, flow cytometer; for Normalized Average of IP-10/CXCL10 / Normalized Average of MIG/CXCL9: degree of change from control (<1 inhibition, >1 enhancement), triplicate; for Normalized Average of I-TAC/CXCL11: degree of change from control, high background in read-out; for Effect on inflammatory response (CXCL9, CXCL10, CXCL11 after IFN-γ) / TRIM8 inhibitor or enhancer activity found on testing: summary in words; for TRIM8 inhibitor or enhancer activity found on testing: Example 4
T1 construct: 20,000 THP-1 cells; endogenous in cells; host or cells: THP-1
T1 sequence (Q9BZR9 1-551): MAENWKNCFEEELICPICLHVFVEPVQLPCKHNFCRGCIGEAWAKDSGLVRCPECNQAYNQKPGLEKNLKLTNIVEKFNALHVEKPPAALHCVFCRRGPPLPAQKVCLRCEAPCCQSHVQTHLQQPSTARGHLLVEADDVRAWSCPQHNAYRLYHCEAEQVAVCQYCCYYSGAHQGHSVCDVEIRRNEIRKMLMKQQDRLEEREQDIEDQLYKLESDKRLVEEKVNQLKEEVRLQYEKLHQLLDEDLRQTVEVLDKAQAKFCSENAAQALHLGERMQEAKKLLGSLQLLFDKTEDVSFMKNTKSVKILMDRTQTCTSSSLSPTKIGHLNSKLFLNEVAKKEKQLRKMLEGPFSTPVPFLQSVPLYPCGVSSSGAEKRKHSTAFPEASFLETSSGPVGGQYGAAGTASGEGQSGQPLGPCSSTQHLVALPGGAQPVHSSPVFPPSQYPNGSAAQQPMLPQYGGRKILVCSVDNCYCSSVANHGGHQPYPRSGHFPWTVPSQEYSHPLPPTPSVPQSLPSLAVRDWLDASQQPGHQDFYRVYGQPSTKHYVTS
Procedure: as §1
Each compound is identified by its ChemDiv catalog number.
Values in Table 1 are reported as degree of change from the control state. Values less than 1 indicate inhibition of cytokine response, and values greater than 1 indicate enhancement of cytokine response. Smaller values indicate a higher degree of inhibition. Values closer to zero indicate profound inhibition of cytokine response, and thus significant suppression of inflammatory responses conferred via inhibition of TRIM8 by the tested compounds. CXCL11 values are higher due to a high background in their read-out (relatively high CXCL11 values indicate […]). Standard errors reflect the degree of variation seen in the triplicate tests for each compound.

SMILES	Average Normalized Cell Count (THP-1 cells)	Normalized Average of IP-10/CXCL10 (TRIM8)	Normalized Average of MIG/CXCL9 (TRIM8)	Normalized Average of I-TAC/CXCL11 (TRIM8)	Effect on inflammatory response (CXCL9, CXCL10, CXCL11 after IFN-γ) (TRIM8)	TRIM8 inhibitor or enhancer activity found on testing (TRIM8)
COc1ccc(CN2C(=O)NC(=O)/C(=C\c3cccc4ccccc34)C2=O)cc1 [Compound 17, (5E)-1-[(4-methoxyphenyl)methyl]-5-[(naphthalen-1-yl)methylidene]-1,3-diazinane-2,4,6-trione]	1.435	3.640	2.545	4.410	significant enhancement of inflammatory response	potent TRIM8 enhancer
COc1ccc(-c2n[nH]c3c2C(c2ccccc2)C2=C(CC(C)(C)CC2=O)N3)cc1 (stereo not drawn) [Compound 76, 3-(4-methoxyphenyl)-7,7-dimethyl-4-phenyl-1H,4H,5H,6H,7H,8H,9H-pyrazolo[3,4-b]quinolin-5-one]	1.196	0.352	0.085	<LLOD	significant inhibition of inflammatory response	powerful TRIM8 inhibitor
COc1ccc(N2CCN(C(=O)c3cc4ccc5cccnc5c4[nH]3)CC2)cc1 [Compound 81, 1-(4-methoxyphenyl)-4-{1H-pyrrolo[3,2-h]quinoline-2-carbonyl}piperazine]	1.070	0.334	0.138	0.617	significant inhibition of inflammatory response	strong inhibitor of TRIM8
COc1ccc(Sc2ccc(=O)n(-c3ccc(C(=O)NCCCc4ccccc4)cc3)n2)cc1 [Compound 88, 4-{3-[(4-methoxyphenyl)sulfanyl]-6-oxo-1,6-dihydropyridazin-1-yl}-N-(3-phenylpropyl)benzamide]	0.837	0.127	0.019	0.744	significant inhibition of inflammatory response	highly potent TRIM8 inhibitor
O=C(NCCCc1ccccc1)c1n[nH]c2c1CN(C(=O)c1cc(F)ccc1F)CC2 [Compound 120, 5-(2,5-difluorobenzoyl)-N-(3-phenylpropyl)-1H,4H,5H,6H,7H-pyrazolo[4,3-c]pyridine-3-carboxamide]	0.960	0.468	0.188	0.426	significant inhibition of inflammatory response	TRIM8 inhibitor
CCc1cccc2c(C(CC(=O)N3CCN(c4ccc([N+](=O)[O-])cc4)CC3)c3cccc4c3OCO4)c[nH]c12 (stereo not drawn) [Compound 130, 3-(2H-1,3-benzodioxol-4-yl)-3-(7-ethyl-1H-indol-3-yl)-1-[4-(4-nitrophenyl)piperazin-1-yl]propan-1-one]	1.135	0.794	7.574	0.806	significant enhancement of inflammatory response	potent TRIM8 enhancer
